As usually defined, the bioavailability is dose-corrected exposure relative to a reference, in per cent.

Results on 9 compounds are retold here after patent US12285392B2, “Method for modulating metabolism” (Brightseed, Inc., priority 2018, dated 2025).

For data set [1], the system named is insulin mRNA. The data set can be described thus: Insulin mRNA levels by quantitative PCR. It is filed as cell-based. The following applies: FIG. 2. On the procedure: (§1) Expression of Insulin and HNF4α. RNA was purified using a RNEASY® chromatographic separation and isolation kits (Qiagen), and converted to cDNA using the gScript™ cDNA SuperMix (Quanta Biosciences). Q-PCR was conducted with cDNA corresponding to 2 μg of RNA using an Opticon Real-Time System (MJ Research) and QPCR SuperMix (BioPioneer). See All mRNA values were normalized to 18S rRNA values and are expressed as fold changes over vehicle-treated control.

Data set [2] relates to HNF4α mRNA. The data set is described as follows: HNF4α mRNA levels by quantitative PCR. The conditions noted are these: FIG. 3. It is filed as cell-based. Here is the method:
as §1

A short description of data set [3]: pH stability assessment. Type of data set: physicochemical. The conditions noted are these: pH 2, 7.4, 8.5 and 10, 37° C., 0.5 and 72 hours. On the procedure: pH Stability Assessment. Individual stock solutions were prepared in DMSO at concentrations of 10 mg/mL. Four different buffer solutions were prepared to achieve solutions with a pH of 2, 7.4, 8.5 and 10. For each pH assay, 5 μL of stock solution was added to 245 μL of buffered solution to a 2 mL tube, vortexed and incubated in a 37° C. water bath. At each timepoint, 50 μL aliquots were taken, neutralized and analyzed via HPLC analysis using a DAD detector at 280 nm. The fold change of the peak area at 280 nm was analyzed for the initial and final timepoint, 0.5 and 72 hours, respectively.

The subject of data set [4] is T6PNE cells. The data set can be described thus: Lipid clearance in T6PNE cells (steatosis assay). The conditions noted are these: 10 μM, 0.25 mM palmitate. Type of data set: cell-based. Here is the method:
T6PNE cells were pretreated for 1 day with 0.06 mM, 0.12 mM or 0.25 mM palmitate at which time 15 μM N-trans-caffeoyltyramine or control (DMSO) was added. Cells were harvested on day 3, 6 and 8 and subjected to staining with Nile Red and Oil Red O. Results are expressed as fold change in Nile Red staining: +palmitate/10% FBS medium (no palmitate)
(§2) Lipid Clearance in HepG2 and T6PNE Cells (Steatosis Assay). The steatosis assay was carried out as described (Kiselyuk, et al. (2012) Chem. Biol. 19(7):806-818) with the exception of the drug concentration, which was 20 μM for N-trans-caffeoyltyramine with 0.25 mM palmitate in HepG2 cell lines, and 10 μM of either N-trans-caffeoyltyramine, N-trans-caffeoyltyramine, or pcoumaroyltyramine, with 0.25 mM palmitate in T6PNE cell lines. Steatosis was assessed using the Oil Red 0 Method for Fats kits (Poly Scientific; Warrington, PA), per manufacturer's guidelines. Briefly, frozen tissue slides or fixed cells were incubated in neat propylene glycol for 2 minutes and Oil Red 0 solution for 15 hours for slides or 1 hour for fixed cells, differentiated in 85% propylene glycol solution for 1 minute, washed twice with distilled water and stained in Hematoxylin of 10 seconds. Slides were mounted with glycerin jelly mounting medium.

A short description of data set [5]: Bioavailability determination in mice. It is filed as in vivo. The conditions noted are these: mouse, whole blood, 30 mg/kg; male C57BL/6 mice. Here is the method: Bioavailability Determinations.
An 8 μL aliquot of blood was used for analysis.

Data set [6] relates to HepG2 cells. The data set is described as follows: Lipid clearance in HepG2 cells (steatosis assay, Oil Red O). It is filed as cell-based. The conditions noted are these: HepG2 liver cells, 20 μM. Here is the method: as §2
The test system of data set [7] is estrogenic activity. The data set can be described thus: Counter-screen for estrogenic activity (E47MER luciferase reporter in HeLa cells). Type of data set: cell-based, human. The following applies: FIG. 5. Here is the method:
Counter-Screen for Estrogenic Activity. Estrogenic activity was monitored by co-transfection of a reporter plasmid containing a multimerized E-box 5′ of a minimal promoter fused to the Firefly luciferase gene (4RTK-luc) with wild-type E47 or E47MER (Kiselyuk, et al. (2010) J. Biomol. Screen 15(6):663-70). HeLa cells were transfected using polyethylenimine, 0.2 μg 4RTK-Luc plasmid and either 0.3 μg of human E47, E47MER or pMSCVhph vector in 50 μl of serum-free Dulbecco's modification of Eagle medium per well. Transfections included Renilla luciferase (pRL-TK) plasmid as a control for transfection efficacy. Transfection conditions were as described in the PPRE-Luc reporter assay of Kiselyuk, et al. ((2010) J. Biomol. Screen 15(6):663-70). Sixteen hours after transfection, culture media were changed and maintained for 48 hours with tamoxifen and/or compound or vehicle (DMSO). Cells were then lysed and assayed for luciferase activity using the Promega DUAL-LUCIFERASE® reporter assay kit (Promega Corp., Madison, WI), and luminescence was measured using the Veritas™ Microplate Luminometer (Turner Biosystems, Sunnyvale, CA). Data were normalized to Renilla luciferase (pRL-TK) and expressed as fold-change over vehicle alone.

For data set [8], the target named is T1, HNF4α (Homo sapiens, UniProt P41235).
T1 construct: endogenous in cells; host or cells: T6PNE cells
T1 sequence (P41235 1-474): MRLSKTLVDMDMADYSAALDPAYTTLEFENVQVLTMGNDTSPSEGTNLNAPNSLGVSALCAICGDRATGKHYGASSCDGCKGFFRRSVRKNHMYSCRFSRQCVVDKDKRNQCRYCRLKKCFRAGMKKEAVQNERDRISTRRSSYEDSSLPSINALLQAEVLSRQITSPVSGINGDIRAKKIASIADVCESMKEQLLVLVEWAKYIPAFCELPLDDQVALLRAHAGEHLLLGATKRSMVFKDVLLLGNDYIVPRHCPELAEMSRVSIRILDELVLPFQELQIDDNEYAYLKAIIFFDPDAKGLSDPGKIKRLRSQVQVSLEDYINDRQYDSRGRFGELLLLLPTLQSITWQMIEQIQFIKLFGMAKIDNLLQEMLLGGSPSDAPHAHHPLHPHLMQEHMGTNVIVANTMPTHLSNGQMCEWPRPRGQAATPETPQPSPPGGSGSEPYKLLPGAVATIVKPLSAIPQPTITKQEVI
The data set is described as follows: Insulin promoter activity assay in T6PNE cells (HNF4α activity). It is filed as cell-based. The conditions noted are these: for HNF4α modulation in screening: screening in the HNF4α assay. Here is the method:
Insulin Promoter Activity. T6PNE cells (Kiselyuk, et al. (2012) Chem Biol. 19(7):806-818; Kiselyuk, et al. (2010) J. Biomol. Screen 15(6):663-70) are seeded at 2000 cells per well in 384-well tissue culture plates in the presence of 1 μM tamoxifen and 0.03 mM palmitate. After a 24-hour incubation, a compound or extract of the invention is added to the cells. Forty-eight hours after compound or extract addition, cells are fixed in 4% paraformaldehyde and stained with DAPI. Blue (DAPI) and green (human insulin promoter driving GFP) channels are imaged.
Inhibition of HNF4α GFP Expression. Using the insulin promoter assay described herein, activity of HNF4α was assessed in the presence of BI-6015 (0, 2.5, 5 μM), a known antagonist of HNF4α (Kiselyuk, et al. (2012) Chem. Biol. 19(7):806-818), in combination with N-trans-caffeoyltyramine (0, 5, 10, 20 μM).
Given the role of HNF4α in maintaining a heal thy metabolism in humans, test compounds were screened for activity as HNF4α agonists (either direct or indirect effects). Using a known insulin promoter-reporter assay, Kiselyuk and colleagues (2010. J. Biomol. Screen 15(6):663-70), screened a library of compounds for activity to promote insulin activation. […] The OTC promoter is known to be responsive to HNF4α in transient transfection assays (Inoue, et al. (2002) J. Biol. Chem. 277:25257-65).

The target of data set [9] is T1, HNF4α. The following applies: cited from earlier work.
The target of data set [10] is T1, HNF4α. The following applies: Kiselyuk et al.; cited from earlier work.

As to `O=C(/C=C/c1ccc(O)cc1)NCC(O)c1ccc(O)cc1` (stereo not shown) [p-coumaroyloctopamine], the Insulin gene expression entry in data set [1] was “inactive”. The HNF4α gene expression result in data set [2] was “inactive”.

As for `COc1cc(/C=C/C(=O)NCC(O)c2ccc(O)cc2)ccc1O` (stereo not shown) [N-transferuloyloctopamine], the Insulin gene expression entry in data set [1] is “inactive”. The HNF4α gene expression entry in data set [2] was “inactive”.

Turning to `O=C(/C=C/c1ccc(O)cc1)NCCc1ccc(O)c(O)c1` [N-coumaroyldopamine], the Insulin gene expression result in [1] was “inactive”. In data set [2], the HNF4α gene expression entry is “inactive”.

`O=C(/C=C/c1ccc(O)cc1)NCCc1ccc(O)cc1` [p-coumaroyltyramine]: in [3], the “pH Stability” value was “Acid Stable”.

Take `COc1cc(/C=C/C(=O)NCCc2ccc(O)cc2)ccc1O` [N-trans-feruloyltyramine]: the “pH Stability” value in data set [3] is reported as “Stable”. Further, in data set [4], the Fat accumulation entry is given as “inhibition of fat accumulation”. In addition, the bioavailability in data set [5] is around 7%. Also, in data set [6], the “Clearing of fats (Oil Red O staining)” value is listed as “capable of clearing harmful fats from the liver”. For the same compound, the Accumulation of fats result in data set [6] (0.25 mM palmitate) is “inhibited accumulation of fats”. Moreover, the Estrogenic activity entry in [7] is listed as “did not exhibit estrogenic activity”. Moreover, the Insulin gene expression entry in [1] is listed as “upregulated”. In addition, in [2], the HNF4α gene expression result is listed as “upregulated”. In data set [8], the “HNF4α modulation in screening” value is “able to act as HNF4α modulators”.

On to `COc1cc(/C=C\C(=O)NCCc2ccc(O)cc2)ccc1O` [cis-feruloyltyramine, reference compound], for which the Insulin gene expression entry in data set [1] is “inactive”. Also, the HNF4α gene expression result in data set [2] was “inactive”.

With `CCN(CCCCc1ccccc1)CCc1ccccc1` [compound 1], in data set [9], the “HNF4α agonistic activity in OTC promoter assay” value is given as “possess HNF4α agonistic activity”. Besides, in data set [10], the “Insulin activation in insulin promoter-reporter screen” value is given as “insulin activator”.

Consider `O=C(/C=C\c1ccc(O)c(O)c1)NCCc1ccc(O)cc1` [N-cis-caffeoyltyramine], for which the “HNF4α modulation in screening” value in data set [8] is “able to act as HNF4α modulators”.

Regarding `Cc1ccc([N+](=O)[O-])cc1S(=O)(=O)n1c(C)nc2ccccc21` [BI-6015, reference compound], the “Effect on N-trans-caffeoyltyramine-mediated increases in insulin expression” value in data set [8] (insulin promoter assay, BI-6015 0, 2.5, 5 μM, FIG. 4) is on record as “inhibited”.
